Experimental data as given in patent publication US20260177556A1, “PROXIMITY-BASED LABELING OF SIALYLATED GLYCOPROTEINS” (THE TRUSTEES OF PRINCETON UNIVERSITY, priority 2022, published 2026).

Key:
Format in all cases: cell-based
[1] = test system: sialylated cell-surface glycoproteins of HeLa cells; experiment: Glycomap labeling efficiency by streptavidin western blot densitometry; conditions: for Experiment/control: ratio of densitometry readouts
Procedure: HeLa cells (approx. 0.4×10^6 cells) were incubated in 6 well dishes in complete DMEM (2 mL) containing Ac4ManNAz (100 μM) at 37° C. for 72 hours. The cells were washed with DPBS (3×1 mL) and then incubated in complete DMEM (2 mL) containing DBCO-iridium (5 μM) or DBCO-biotin (5 μM) at 37° C. for 24 hours. The cells were washed with DPBS (3×1 mL) and irradiated in DMEM (no phenol-red, 200 μL) containing biotin-diazirine (250 μM) at room temperature for 20 minutes in the biophotoreactor (blue LEDs). The cells were washed with DPBS (3×1 mL), scraped in DPBS (1 mL), and transferred to 1.5 mL Eppendorf tubes. The cells were pelleted at 400×G for 5 minutes and resuspended in Ripa lysis buffer (500 μL). The cells were lysed by sonication (bioruptor) at 4° C. for 10 minutes (20 cycles, 15 sec on 15 sec off at 100% power). The protein concentration was normalized by BCA assay and the lysate was analyzed by Western blot (20 μg of protein per lane, 12% gel, 150 V). The gel was transferred via iBlot 2 to an NC membrane Following transfer, the membrane was immersed in Odyssey Blocking Buffer (Li-Cor, 927-50000) and incubated at room temperature for 1 hour. The blocking buffer was replaced with fresh blocking buffer (10 mL) containing anti-Actin antibody (10 μL) and the membrane was rocked for 1 hour. The buffer was decanted, and the membranes were washed with 1×TBST (4×5 min) and water (3×5 sec). […]
Based on the Western blot results shown in FIG. 2B the efficiency of labeling via Glycomap can be calculated using densitometry. […]
The whole calculation is listed below: • Densitometry readout DBCO-Iridium full experiment: 108′442 • Densitometry readout DBCO-Iridium control: 6′164 • Experiment/control: 17.6 • Densitometry readout DBCO-Biotin full experiment: 158′335 • Densitometry readout DBCO-Biotin control: 5′937 • Experiment/control: 26.7 • Comparison: 17.6/26.7=0.7 tags per catalyst.

[2] = test system: HEK293T, HeLa or primary cervical epithelial cells; experiment: Confocal microscopy of biotinylation after glycomap experiment; conditions: after Ac4ManNAz, 5 μM reagent, irradiation in presence of biotin-diazirine
Procedure: Cells (HEK293T, HeLa or primary cervical epithelial cells) (approx. 2×10^4 cells) were incubated in poly-lysine coated 8 well chamber slides in complete DMEM (200 μL) containing Ac4ManNAz (100 μM) at 37° C. for 48 hours. The cells were washed with DPBS (3×200 μL) and then incubated in complete DMEM (200 μL) containing DBCO-iridium (5 μM) or DBCO-biotin (5 μM) at 37° C. for 24 hours. The cells were washed with DPBS (3×200 μL) and irradiated in DMEM (no phenol-red, 200 μL) containing biotin-diazirine (250 μM) at room temperature for 20 minutes in the biophotoreactor (blue LEDs). The cells were washed with DPBS (3×200 μL) and fixed with prewarmed 4% paraformaldehyde (200 μL) at room temperature for 30 min. The cells were washed with DPBS (2×200 μL) and blocked with 3% BSA in DPBS (200 μL) at room temperature for 1 hour. The blocking buffer was replaced with fresh 3% BSA in DPBS (200 μL) containing Hoechst (1:1000), and Streptavidin-AlexaFluor 555 conjugate (1:1000). The cells were stained in the dark at room temperature for 1 hour and then stored in the dark at 4° C. The cells were imaged on a NIKON A1R-SI microscope (Nikon Instruments, Inc., Melville, NY) at 20× magnification. The images were processed with Fiji-ImageJ. Images shown are representative of the multiple cross-sectional images taken during each session.

[3] = test system: HeLa cells; experiment: Colorimetric zinc assay
Procedure: The zinc assay was purchased from Abcam (ab102507), and the experiment was performed according to the procedure below, adapted from the supplier's instructions.
In transparent 10 cm dishes, HeLa cells were grown in complete medium (DMEM, supplemented with 10% FBS) in presence (×3) or absence (×3) of VC-sialidase (20 mU/mL medium) for 96 hours. The medium was exchanged every 24 hours and fresh sialidase was added at those timepoints. After 96 hours, the medium was removed and DPBS (5 mL) was added. The cells were scraped, transferred to 15 mL conical tubes, and pelleted at 400×g for 5 minutes. The supernatant was removed, and the cells were lysed in 50 μL EDTA-free lysis buffer lysed by sonication (bioruptor) at 4° C. for 10 minutes.
The lysate was clarified at 18′000×g for 15 minutes and analyzed by BCA assay. 30 µL of the cell lysate was transferred to a 1.5 mL Eppendorf tube containing 30 μL of 7% TCA to precipitate proteins. The mixture was clarified at 18′000×g for 5 minutes and […] of the resulting solution were used for the zinc detection assay.

[4] = test system: HeLa cells; experiment: Mass spectrometry-based metabolomic quantification of sialidase-treated cells; conditions: sialidase-treated vs untreated HeLa cells, 72 hours
Procedure: In transparent 10 cm dishes (×6), HeLa cells were grown for 72 hours in 5 mL complete DMEM supplemented with 10% FBS in presence or absence of neuraminidase (20 U/mL). After 72 hours, the cells were washed with DPBS (3×5 mL) and incubated with TrypLE (1 mL) for 15 minutes at 37° C. The cells were transferred to 15 mL conical tubes using 4 mL DPBS to wash the plates. The cells were pelleted at 500×G for 4 minutes and resuspended in 1 mL DPBS. The cells were counted, and 500′000 cells/experiment were transferred to 1.5 mL Eppendorf tubes. The cells were pelleted (500×g for 4 min), the supernatant removed, and the cells were lysed with ice cold 80% MeOH (60 μL) for 30 minutes at 0° C. The cell lysate was clarified by centrifugation at 20′000×G for 25 minutes and the lysates were transferred to new 0.5 mL Eppendorf tubes and stored at −80° C. until mass spectrometry analysis.
HPLC-grade water, methanol, and acetonitrile were obtained from Thermo Fisher Scientific. Supernatant sample was thawed at room temperature and kept at 4° C. in an autosampler. Samples were analyzed using a Q Exactive Plus mass spectrometer coupled to Vanquish UHPLC system (Thermo Fisher Scientific). LC separation was achieved using a XBridge BEH Amide column (2.1 mm×150 mm, 2.5-μm particle size, 130-A pore size; Waters, Milford, MA, USA) using a gradient of solvent A (20 mM ammonium acetate+20 mM ammonium hydroxide in 95:5 water/acetonitrile [pH 9.45]) and solvent B (acetonitrile). Flow rate was […]. The gradient was 0 min, 90% B; 2 min, 90% B; 3 min, 75%; 7 min, 75% B; 8 min, 70%, 9 min, 70% B; 10 min, 50% B; 12 min, 50% B; 13 min, 25% B; 14 min, 25% B; 16 min, 0% B, 20.5 min, 0% B; 21 min, 90% B; 25 min, 90% B. The column temperature was 25° C., and the injection volume was 5 μL. The mass spectrometer is operated in full scan mode with separate runs in positive mode and negative mode covering m/z 70-1000, with resolution 140,000 at m/z 200, AGC target 5E6, maximum injection time 200 ms.
Data analyses were performed using El-Maven and the metabolites identified with an in-house library using authentic standards.^3 Metabolite signal intensity were then further processed in Excel (median correction) and Graphpad Prism (transformation, t-test, and volcano plot generation).

## O=C(CCCC[C@@H]1SC[C@@H]2NC(=O)N[C@@H]21)NCC(C(=O)NCCC(=O)N1Cc2ccccc2C#Cc2ccccc21)S(=O)(=O)O (some centres unmarked) [DBCO-biotin, DBCO-Sulfo-Link-biotin, reference compound]
[1]
  Experiment/control: 26.7
[2]
  biotinylation by confocal microscopy: strong biotinylation

## [Ir(dCO2HdFCF3ppy)2(bpy-dbco) [DBCO-iridium]
[1]; HeLa cells, Ac4ManNAz 100 μM, streptavidin blot densitometry, relative to DBCO-biotin
  tags per catalyst (labeling efficiency): 0.7 tags per catalyst
[1]
  Experiment/control: 17.6
[2]
  biotinylation by confocal microscopy: strong biotinylation

## VC-Sia: sialidase isolated from Vibrio cholerae, cleaves α2,3-, α2,6-, or α2,8-linked sialic acids
[3]; HeLa cells, VC-sialidase 20 mU/mL medium, 96 hours, single replicates
  Zinc concentration (nmol zinc/mg of protein-free lysate): 1.4 nmol/mg
[3]; sialidase-treated vs untreated HeLa cells
  zinc level vs untreated cells: significantly higher
[4]
  level of cytidine diphosphate choline (CDP-choline): significantly increased
  level of cytidine diphosphate ethanolamine (CDP-Etn): significantly increased
  level of phosphate ethanolamine (P-Etn): significantly increased
  most metabolite levels: minimally affected
